Pest or weed control data for six compounds are collected here from US8828908B2, “Herbicidally active bicyclic 1,3-dione compounds” (Syngenta Limited, priority 2007, dated 2014).

What all share (format): in vivo
Assay [1] concerns Alopecurus myosuroides (ALOMY). The experiment in a line: Example A pre-emergence herbicidal glasshouse test. Conditions: 312 h, Rate 250 g/ha, evaluated after 13 days, 100=total damage to plant, 0=no damage to plant. The protocol: (§1) Seeds of a variety of test species were sown in standard soil in pots. After cultivation for one day (pre-emergence) or after 8 days cultivation (post-emergence) under controlled conditions in a glasshouse (at 24/16° C., day/night; 14 hours light; 65% humidity), the plants were sprayed with an aqueous spray solution derived from the formulation of the technical active ingredient in acetone/water (50:50) solution containing 0.5% Tween 20 (polyoxyethelyene sorbitan monolaurate, CAS RN 9005-64-5). The test plants were then grown in a glasshouse under controlled conditions in a glasshouse (at 24/16° C., day/night; 14 hours light; 65% humidity) and watered twice daily. After 13 days for pre and post-emergence, the test was evaluated (100=total damage to plant; 0=no damage to plant).
(§2) Alopecurus myosuroides (ALOMY), Avena fatua (AVEFA), Setaria faberi (SETFA), Echinochloa crus-galli (ECHCG), Solanum nigrum (SOLNI) and Amaranthus retroflexus (AMARE)

In assay [2] the test system is Amaranthus retroflexus (AMARE). Nature of the assay: Example A pre-emergence herbicidal glasshouse test. As to conditions: 312 h, Rate 250 g/ha, evaluated after 13 days, 100=total damage to plant, 0=no damage to plant. The protocol:
as §1, §2

Assay [3] deals with Avena fatua (AVEFA). Nature of the assay: Example A pre-emergence herbicidal glasshouse test. Conditions: 312 h, Rate 250 g/ha, evaluated after 13 days, 100=total damage to plant, 0=no damage to plant. The protocol: as §1, §2
For assay [4], the system named is Echinochloa crus-galli (ECHCG). Nature of the assay: Example A pre-emergence herbicidal glasshouse test. Conditions: 312 h, Rate 250 g/ha, evaluated after 13 days, 100=total damage to plant, 0=no damage to plant. The protocol:
as §1, §2

For assay [5], the system named is Setaria faberi (SETFA). Nature of the assay: Example A pre-emergence herbicidal glasshouse test. Conditions: 312 h, Rate 250 g/ha, evaluated after 13 days, 100=total damage to plant, 0=no damage to plant. The protocol: as §1, §2
The subject of assay [6] is Alopecurus myosuroides (ALOMY). The experiment in a line: Example A post-emergence herbicidal glasshouse test. Conditions: 312 h, evaluated after 13 days, 100=total damage to plant, 0=no damage. The protocol:
as §1, §2

For assay [7], the system named is Amaranthus retroflexus (AMARE). The assay is described as above. Conditions: 312 h, evaluated after 13 days, 100=total damage to plant, 0=no damage. The protocol:
as §1, §2

Assay [8] relates to Avena fatua (AVEFA). Described as above. Conditions: 312 h, evaluated after 13 days, 100=total damage to plant, 0=no damage. The protocol:
as §1, §2

Assay [9] concerns Echinochloa crus-galli (ECHCG). Described as above. Conditions: 312 h, evaluated after 13 days, 100=total damage to plant, 0=no damage. The protocol: as §1, §2
For assay [10], the system named is Setaria faberi (SETFA). The description is as above. As to conditions: 312 h, evaluated after 13 days, 100=total damage to plant, 0=no damage. The protocol: as §1, §2

On to `Cc1cccc(-c2ccc(C)c(C3=C(O)[C@H]4CC[C@H](C4)C3=O)c2)c1` (single isomer, unassigned) [Compound T19], for which the pest or weed control at 250 g/ha (in [1]; in assay [2]; in the assay with Avena fatua (AVEFA) [3]; in assay [4]; in the assay with Setaria faberi (SETFA) [5]; in assay [6]) was 0% throughout. The pest or weed control (usually the degree to which the test organism was suppressed or injured, in per cent) at 250 g/ha in [7] is 20%; in the assay on Avena fatua (AVEFA) [8], 0%; in assay [9], 40%; with Setaria faberi (SETFA) [10], 50%.
With `Cc1ccc(-c2ccc(C)c(C3=C(O)[C@H]4CC[C@H](C4)C3=O)c2)cc1Cl` (single isomer, unassigned) [Compound T49], the pest or weed control at 250 g/ha in assay [1] came to 0%; in [2], 0%; with Avena fatua (AVEFA) [3], 0%; in assay [4] it was 30%; in the assay on Setaria faberi (SETFA) [5] it was 0%; in assay [6], 0%. Further, the pest or weed control at 250 g/ha is 0% in [7], 0% in the assay on Avena fatua (AVEFA) [8], 30% in [9] and 30% with Setaria faberi (SETFA) [10].
`Cc1ccc(-c2cc(Cl)ccc2C)cc1C1=C(O)[C@H]2CC[C@H](C2)C1=O` (single isomer, unassigned) [Compound T50]: the pest or weed control at 250 g/ha (in [1]; in assay [2]; with Avena fatua (AVEFA) [3]; in assay [4]; with Setaria faberi (SETFA) [5]; in assay [6]) was 0% throughout. The pest or weed control at 250 g/ha came out at 0% in assay [7], 0% in the assay with Avena fatua (AVEFA) [8], 30% in assay [9] and 0% in the assay on Setaria faberi (SETFA) [10].
With `Cc1ccc(-c2cc(F)cc(Cl)c2)cc1C1=C(O)[C@H]2CC[C@H](C2)C1=O` (single isomer, unassigned) [Compound T47], the pest or weed control at 250 g/ha (in [1]; in assay [2]; with Avena fatua (AVEFA) [3]; in assay [4]; in the assay with Setaria faberi (SETFA) [5]; in [6]) was 0% each time. The pest or weed control at 250 g/ha was 0% in [7], 0% with Avena fatua (AVEFA) [8], 30% in [9] and 0% in the assay on Setaria faberi (SETFA) [10].
Consider `Cc1ccc(-c2ccc(Cl)nc2)cc1C1=C(O)[C@H]2CC[C@H](C2)C1=O` (single isomer, unassigned) [Compound T81], for which the pest or weed control at 250 g/ha worked out at 30% in [1]; 20% in assay [2]; 40% in the assay with Avena fatua (AVEFA) [3]; 50% in assay [4]; 70% in the assay on Setaria faberi (SETFA) [5]; 50% in assay [6]. Further, the pest or weed control at 250 g/ha was 0% in assay [7], 70% with Avena fatua (AVEFA) [8], 80% in assay [9] and 90% with Setaria faberi (SETFA) [10].
`Cc1ccc(-c2ccccc2C(F)(F)F)cc1C1=C(O)[C@H]2CC[C@H](C2)C1=O` (single isomer, unassigned) [Compound T21]: the pest or weed control at 250 g/ha (in assay [1]; in [2]; in the assay on Avena fatua (AVEFA) [3]; in assay [4]; with Setaria faberi (SETFA) [5]; in [6]) was 0% throughout. For the same compound, the pest or weed control at 250 g/ha in assay [7] was 0%; in the assay on Avena fatua (AVEFA) [8] it was 0%; in assay [9], 0%; in the assay with Setaria faberi (SETFA) [10], 20%.
